Source: ChEMBL document CHEMBL3507680, “University of Dundee, Gates Library screen for HepG2 cell viability”

Assay: Human HepG2 cell viability assay in 384 well format
Format: toxicity, cell-based
Set-up: dose 125 nL, time 70.5 hour; cytotoxicity at 70.5 h: concentration not given beside the values
Conditions: HepG2 cells, read-out: Inhibition

SMILES | cytotoxicity at 70.5 h [%]
CN(CCCNC(=O)C1CCc2cn[nH]c2C1)c1ccccc1 (stereo not given) | -4.99
COc1ccc(N2CCN(C(=O)[C@H]3[C@@H]4CNC[C@@H]43)CC2(C)C)cc1 | 18.4
Cc1cccc(N2CCN(CCC(=O)NCc3nnc[nH]3)CC2)c1 | -1.67
CC(=O)N1CC(c2ncn(C(C)C)n2)c2cc(C(=O)NC3CC3)ccc21 (stereo not given) | 14.1
O=C(c1ccc2c(c1)COC2)N1CCC(Nc2ccccc2)CC1 | 1.02
CCc1nc(C)c(C(=O)NCCN2CCC(C)CC2)s1 | 0.72
CC(=O)N(C)Cc1ccccc1NC(=O)c1ccccc1C | -2.28
COc1cc(OC)cc(C2NC(=O)CN2Cc2ccc(Br)cc2)c1 (stereo not given) | -8.73
Cc1csc(N2CCN(C(=O)CCc3ccccn3)CC2)n1 | -2.58
N#Cc1ccc(OC[C@]23COC[C@H]2CN(c2ncccn2)C3)nc1 | -7.98
Cc1ccc(C(=O)NS(C)(=O)=O)cc1I | 16.8
COc1ccc(CC(C)(O)CNC(=O)Cc2ccc(F)cc2)cc1 (stereo not given) | -21
CCn1ccnc1C1CCCN(C(=O)c2sc(C)nc2C)C1 (stereo not given) | -7.2
CC(C)N(CC(N)=O)Cc1csc(Cc2ccccc2)n1 | 24.4
CC(Cn1ccnc1)NC(=O)N1CCCN(Cc2cccs2)CC1 (stereo not given) | -14
CSCCC(=O)N1CCCC1c1nnc2n1CCCCC2 (stereo not given) | -3.4
CC(O)CN1CCC(CN(C)Cc2ccc(C(N)=O)cc2)CC1 (stereo not given) | -9.95
CC(C)C(=O)N1CCC(c2nc3c([nH]2)CCCNC3=O)CC1 | -6.35
O=C1NCCN1C1CCN(Cc2ccccn2)CC1 | -5.43
O=C(CCn1ccccc1=O)N1CCN(Cc2cccc(Cl)c2)CC1 | -12.6
CCc1nc(CN2CCCC(NCCn3cncn3)C2)no1 (stereo not given) | -8.1
Cc1c[nH]c(C2COCCN2C(=O)c2ccc(=O)[nH]n2)n1 (stereo not given) | -4.98
N#CC1(NC(=O)c2ccc(-c3nc(C4CC4)n[nH]3)cc2)CCSC1 (stereo not given) | -18.6

SMILES | cytotoxicity at 70.5 h [%]
COc1cccc(N2CCN(Cc3cccc(CCN)c3)CC2=O)c1 | -6.65
CS(=O)(=O)N[C@H]1CN(C(=O)CCc2ccc(=O)[nH]n2)C[C@@H]1C1CC1 | -7.22
Cc1cccc(N2CCN(C(=O)CN3CCC(C(N)=O)CC3)CC2)c1 | -2.32
Cc1csc(NC(=O)c2cnc(C3CCNCC3)cn2)n1 | -11.9
COCCNC(=O)[C@H]1C[C@H]2OCC[C@H]2N(Cc2ccoc2)C1 | -3.39
O=C(CCCN1CCCCC1)N1CCC(c2nnc[nH]2)CC1 | -4.84
CN(C)c1nccc(NC(=O)c2ccncc2)n1 | -7.12
Fc1ccc(CN2CCOC(Cn3cncn3)C2)c2ncccc12 (stereo not given) | -3.84
O=C(Cc1cccs1)N1CCCC(CNS(=O)(=O)Cc2ccccc2)C1 (stereo not given) | -5.58
CN(C)CC(=O)N1CCC2(CCc3ccc(-c4ccncc4)cc32)CC1 | 3.66
OCCN1CCCCC1c1cc[nH]n1 (stereo not given) | -8.74
CCOCC(=O)N1CCC2(CC1)COCCN2CCN(C)C | -9.1
COc1cc(C(=O)NCc2cc(N3CCOCC3)ncn2)ccn1 | 20.4
CC(CN1CCCC1=O)NC(=O)c1cc(-c2cccc(Cl)c2)no1 (stereo not given) | -18.5
CC(C)(C)CNC[C@H]1Cn2c(-c3ccccc3)cnc2CO1 | -3.54
c1cc(CN2CCC(c3nnc4n3CCCCC4)CC2)c2nonc2c1 | 12.2
CC(O)CN1CCC(CNCc2ccccc2F)CC1 (stereo not given) | -1.41
CCCc1cc(C(=O)N2CCCC2c2cccnc2)[nH]n1 (stereo not given) | -5.97
CC(C)Oc1ncnc2c1CCN(c1cc(C(F)(F)F)ncn1)CC2 | 4.68
COc1nn(C)cc1C(=O)N1CCC(c2ccccc2)C1 (stereo not given) | -1.63
O=C(C1CCOCC1)N1C[C@@H]2CN(Cc3ccsc3)CCO[C@@H]2C1 | -10.4
O=C1COC2(CCN(Cc3ccncc3)CC2)CN1CC1CC1 | 4.04
Cc1nsc(C(=O)N2CCc3ccccc3C2)n1 | 28.2

SMILES | cytotoxicity at 70.5 h [%]
Cc1n[nH]c2c1C(c1ccc(F)cc1)SCC(=O)N2 (stereo not given) | -4.92
CN1CCCC2(CC1)CCN(C(=O)CCc1ccccc1F)CC2 | -6.92
COCCN1CCC2(CC1)COc1ccccc1S(=O)(=O)N(C)C2 | 2.33
CCCN1CCN(C(=O)c2cnccn2)[C@H]2CS(=O)(=O)C[C@H]21 | -0.654
CCC(Oc1ccc(N(C)S(C)(=O)=O)cc1)C(=O)NC (stereo not given) | -1.39
CC(C)(C)NC(=O)CCOc1cccc(F)c1 | -5.57
CC(C)n1nnnc1-c1ccc(NC(=O)C(C)(C)C#N)cc1F | 4.99
COc1cccn(CC(=O)N(C)CCSC)c1=O | -12.7
CC(C)N1CC(C(=O)NCCOc2ccc3c(c2)OCO3)CC1=O (stereo not given) | 1.18
CC(=O)NCCC1CCCCN1C(=O)c1cccc(CCC(C)(C)O)c1 (stereo not given) | -6.03
Cc1cccc(CC2CCCN(C(=O)Cc3csc(C)n3)C2)n1 (stereo not given) | -10.5
O=C(CCc1ccsc1)Nc1cnccc1O | -6.71
Cn1cc(S(=O)(=O)N2CCCC2Cn2ccnc2)cn1 (stereo not given) | -3.56
CCCC(=O)N(CCCN1CCOCC1)c1nc2c(F)cccc2s1 | -1.9
CCSc1ncc(CN2CCC(O)(CN3CCOCC3)C(C)(C)C2)cn1 (stereo not given) | 38.5
NC(=O)Cn1cc(NC(=O)NCCN2CCc3ccccc3C2)cn1 | -5.44
CNC(=O)c1cc(C2CCCN2)n[nH]1 (stereo not given) | -3.32
CC1CS(=O)(=O)CCN1Cc1ccccc1N(C)C (stereo not given) | -0.403
Cc1c(Cl)cccc1NC(=O)CN(Cc1cccnc1)C(C)C | 1.97
O=C(CCc1nnc2ccccn2c1=O)NCc1ccc2c(c1)OCO2 | 25.1
c1cc(-c2nc(CN3CCn4c(nnc4C4CC4)C3)cs2)cs1 | -25.2
Cc1ccc(C(=O)N2CCC3(CC2)CC(N2CCOCC2)C3)cc1 | -12.7
O=C(NCC1CCS(=O)(=O)C1)N(Cc1ccncc1)C1CC1 (stereo not given) | -6.32

SMILES | cytotoxicity at 70.5 h [%]
COc1ccnc(N2CCCN(c3nc(C4CC4)ns3)CC2)n1 | -9.55
NCC1Cc2cc(-c3cnccn3)cc(Cl)c2O1 (stereo not given) | 0.342
NC(=O)CSc1ccccc1NCc1nc(Cc2ccccc2)no1 | -6.14
Cc1cnn(CC2CCCN2C(=O)Cc2ccc3c(c2)CCO3)c1 (stereo not given) | -7.32
COc1ccccc1C(=O)NC(CC(=O)O)c1cccs1 (stereo not given) | -3.76
COC(C)(CNS(=O)(=O)c1cccnc1)c1ccccc1F (stereo not given) | -18.1
COc1cc(C(=O)N2CCC(O)(CN3CCOCC3)C(C)(C)C2)ccn1 (stereo not given) | -0.646
COCCC1(C(=O)O)CCCN(C(=O)c2cc(F)ccc2OC)C1 (stereo not given) | -10.6
CNC(=O)c1cc2c(nc1N(C)C)CCN(c1ncc(F)cn1)CC2 | -13.5
Cc1nn(C)c(C)c1C1CCCN1C(=O)c1ccnc(N(C)C)c1 (stereo not given) | -14.3
CNC(=O)c1cccc(CNC2CCCSc3ccccc32)c1 (stereo not given) | -5.82
O=C(CO)N1CCOC2(CCCN(c3ncc(F)cn3)C2)C1 (stereo not given) | -0.965
Cc1cc(C)n(Cc2cc(C(=O)N[C@H]3CCCCNC3=O)n[nH]2)n1 | -3.71
CCC(NCCn1cc(C)cn1)C(=O)Nc1cc(C)on1 (stereo not given) | 10.8
Fc1cc(CNCc2ccc3c(c2)CCO3)ccc1N1CCOCC1 | -6.5
CCCc1ccc(CN2CCN(C(=O)C(C)C)[C@@H]3CS(=O)(=O)C[C@@H]32)o1 | -6.33
COc1ncccc1NC(=O)NCC(O)c1ccc(F)cc1F (stereo not given) | -1.05
CN1CCOCC12CCN(Cc1nccs1)CC2 | 3.99
CC(C)(C)NC(=O)C1(Cc2ccccc2-c2ccncc2)CCOCC1 | 27.7
Cn1nc(C(=O)N2CCSCC2)cc1NC(=O)c1ccccc1 | -1.31
CCN1CCCC(O)(CN(C)Cc2ccc(C)o2)C1 (stereo not given) | -10.6
O=C(NCCOCC(F)(F)F)c1ccc(-c2ccco2)[nH]c1=O | -9.67
O=C(NCCN1CCc2ccccc21)c1cc(-c2ccc(O)cc2)n[nH]1 | 46.5

SMILES | cytotoxicity at 70.5 h [%]
Cc1ccccc1C(C)(C)CNC(=O)CN(C)c1cnccn1 | -0.621
Cc1ccc(C)c(CS(=O)(=O)CC(=O)NCCCOC(C)C)c1 | -4.92
COc1cccc2cc(CNC(=O)N3CCC(N4CCCC4)C3)oc12 (stereo not given) | -4.76
CCOc1cc(C)c(-c2cc(N)[nH]n2)cc1OCC | -8.56
CO[C@H]1CN(C(=O)OC(C)(C)C)CC1NCc1cc[nH]c1 (stereo not given in full) | -20.4
Cn1ncc2c(=O)[nH]c(CN(Cc3ccco3)C3CC3)nc21 | -16.2
c1cnc(-c2cnc(N3CCSCC3)nc2C2CCCO2)cn1 (stereo not given) | -16.8
Cc1ccc(CN2CCO[C@H]3[C@@H](OCc4cccnc4)CC[C@@H]32)o1 | -14.9
CC1CCc2nn(CCNC(=O)c3ccco3)c(=O)cc2C1 (stereo not given) | -5.13
Cn1nc(C(=O)N2CCOCC2)c2c1CN(CC1CCC1)C2 | -5.26
Cc1nn(C)cc1-c1cc(C(F)F)nc(NC2CCCCC2)n1 | -11.8
CN(Cc1cc2n(n1)CCN(C(=O)c1cccnc1)C2)Cc1nccs1 | -12
O=C(CN1CCCC(CO)C1)NCCOc1cccc(Cl)c1 (stereo not given) | 27.5
Cc1ccc(OCC(=O)Nc2ncccc2OC(F)F)cc1 | -1.62
O=c1c2cn[nH]c2nc(SCCN2CCOCC2)n1-c1ccccc1 | -7.75
Cc1cccc2c1cnn2CCC(=O)NCC(=O)N(C)C | -9.91
O=C1CC[C@H]2CN(c3ncc(F)cn3)CC[C@H]2N1CCc1c[nH]cn1 | -8.52
Cc1ccc(F)c(NCC(C)(C)S(C)(=O)=O)c1 | -2.22
Cn1ncc(N2CCC(CNC3CC(c4ccccc4)C3)CC2)cc1=O (stereo not given) | -5.35
Cc1csc(N2CCN(C(=O)Cc3ccsc3)CC2)n1 | 31.2
O=C(c1ccc(Cl)cc1)N1CCn2c(nn(-c3ccncc3)c2=O)C1 | -8.19
CSC(C)CC(=O)N1CCC(n2ccnn2)CC1 (stereo not given) | -8.7
Cc1ccc(CS(=O)(=O)CC(=O)NCCCOC(C)C)cc1 | -10.8
